Results on 27 compounds are retold here after US20250059172A1, “INDAZOLE COMPOUND AND PHARMACEUTICAL” (NIPPON SHINYAKU CO., LTD., priority 2021, published 2025).

Where a name gives a salt, the structure may show the parent alone.

The test system of one assay is human A549 cells. Kind of assay: Inhibition test of PGE2 production using human A549 cells. In kind it is cell-based. Conditions: IL-1β stimulated A549 cells, 24 h, PGE2 by HTRF, read-out: A549 cell inhibition of PGE2 production IC50. An outline of the steps: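 A549 cells were preincubated 60 min with compound in RPMI/3% FBS (0.1% DMSO final), then stimulated with IL-1β (5 ng/well) for 24 h at 37°C. PGE2 was measured by HTRF and PGF2a by EIA; activity was normalized to stimulated minus unstimulated controls, and IC50 derived.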

Another assay deals with human mPGES-1 (Homo sapiens (Human), UniProt O14684). The experiment in a line: mPGES-1 inhibitory activity test. In kind it is biochemical. The note with it: microsomes of CHO-K1 cells expressing human mPGES-1, PGH2 1 μM, PGE2 by HTRF; read-out: mPGES-1 inhibition (IC50 nM). Put shortly:
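PGE2 formation was quantified by HTRF and reported as percent inhibition at 10 and 100 nM compound or as IC50. The 60-second reaction at 4° C used 1 μM PGH2, after a 20-minute 4° C preincubation of compound (1% DMSO final) with glutathione-supplemented (2.5 mM, pH 7.4) microsomes. The microsomes were from transiently transfected CHO-K1 cells expressing human mPGES-1.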
(Time-resolved FRET reads energy transfer from a long-lived donor to a nearby acceptor.)

The term IC50 denotes the concentration at which inhibition is half-maximal.

human mPGES-1, sequence (O14684 whole entry): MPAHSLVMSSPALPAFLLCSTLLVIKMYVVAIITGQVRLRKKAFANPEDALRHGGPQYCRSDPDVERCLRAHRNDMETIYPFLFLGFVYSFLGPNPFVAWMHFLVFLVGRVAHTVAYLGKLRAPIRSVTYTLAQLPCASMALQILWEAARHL

Take `CC(C)(C)C(=O)NCc1ccc(Cl)c(C(=O)Nc2cccc3c2cnn3-c2nccs2)c1` [Example 80, 2-Chloro-5-{[(2,2-dimethylpropanoyl)amino]methyl}-N-[1-(1,3-thiazol-2-yl)-1H-indazol-4-yl]benzamide]: the values for the IC50 in the assay on human A549 cells and at human mPGES-1 were 5.2 nM and 1.1 nM, respectively.
Turning to `CC(C)(C)C(=O)NCc1ccc(Cl)c(C(=O)Nc2cccc3c2cnn3-c2cccc(OC(F)F)c2)c1` [Example 81, 2-Chloro-N-{1-[3-(difluoromethoxy)phenyl]-1H-indazol-4-yl}-5-{[(2,2-dimethylpropanoyl)amino]methyl}benzamide], the half-maximal inhibitory concentration (IC50) with human A549 cells is 0.3 nM; on human mPGES-1, 14.9 nM.
Taken in the same sequence, the figures for `Cc1cc(-n2ncc3c(NC(=O)c4cc(CNC(=O)C(C)(C)C)ccc4Cl)cccc32)ccc1OC(F)(F)F` [Example 82, 2-Chloro-5-{[(2,2-dimethylpropanoyl)amino]methyl}-N-{1-[3-methyl-4-(trifluoromethoxy)phenyl]-1H-indazol-4-yl}benzamide] were 0.3 nM and 10 nM.
Turning to `CC(C)(C)C(=O)NCc1ccc(Cl)c(C(=O)Nc2cccc3c2cnn3-c2cscn2)c1` [Example 83, 2-Chloro-5-{[(2,2-dimethylpropanoyl)amino]methyl}-N-[1-(1,3-thiazol-4-yl)-1H-indazol-4-yl]benzamide], the IC50 with human A549 cells stood at 5.3 nM; at human mPGES-1, 1.5 nM.
As for `COC(C)(C)c1ccc(-n2ncc3c(NC(=O)c4cc(CNC(=O)C(C)(C)C)ccc4Cl)cccc32)cn1` [Example 84, 2-Chloro-5-{[(2,2-dimethylpropanoyl)amino]methyl}-N-{1-[6-(2-methoxypropan-2-yl)pyridin-3-yl]-1H-Indazol-4-yl}benzamide hydrochloride], the IC50 was 4.9 nM in the assay with human A549 cells and 0.8 nM on human mPGES-1.
Consider `CC(C)(C)C(=O)NCc1ccc(Cl)c(C(=O)Nc2cccc3c2cnn3-c2ccc(C(C)(C)F)nc2)c1` [Example 85, 2-Chloro-5-{[(2,2-dimethylpropanoyl)amino]methyl}-N-{1-[6-(2-fluoropropan-2-yl)pyridin-3-yl]-1H-indazol-4-yl}benzamide], for which the IC50 was found to be 6 nM with human A549 cells and 8.6 nM on human mPGES-1.
With `CCOCc1ccc(-n2ncc3c(NC(=O)c4cc(CNC(=O)C(C)(C)C)ccc4Cl)cccc32)cn1` [Example 86, 2-Chloro-5-{[(2,2-dimethylpropanoyl)amino]methyl}-N-{1-[6-(ethoxymethyl)pyridin-3-yl]-1H-indazol-4-yl}benzamide hydrochloride], the IC50 in the assay with human A549 cells is 101 nM; on human mPGES-1, 15.7 nM.
`Cc1ccc(-n2ncc3c(NC(=O)c4cc(CNC(=O)C(F)(F)F)ccc4Cl)cccc32)cn1` [Example 87, 2-Chloro-N-[1-(6-methylpyridin-3-yl)-1H-indazol-4-yl]-5-{[(trifluoroacetyl)amino]methyl}benzamide hydrochloride]: the values for the IC50 in the assay with human A549 cells and on human mPGES-1 were 72 nM and 4.7 nM, respectively.
With `COc1cccc(Cn2ncc3c(NC(=O)c4cc(CNC(=O)C(C)(C)C)ccc4Cl)cccc32)c1` [Example 89, 2-Chloro-5-{[(2,2-dimethylpropanoyl)amino]methyl}-N-[1-(3-methoxybenzyl)-1H-indazol-4-yl]benzamide], the IC50 in the assay with human A549 cells worked out at 20.7 nM; at human mPGES-1, 3.5 nM.
As for `COc1ccccc1Cn1ncc2c(NC(=O)c3cc(CNC(=O)C(C)(C)C)ccc3Cl)cccc21` [Example 90, 2-Chloro-5-{[(2,2-dimethylpropanoyl)amino]methyl}-N-[1-(2-methoxybenzyl)-1H-indazol-4-yl]benzamide], the figures for the IC50 in the assay on human A549 cells and at human mPGES-1 were 17.7 nM and 2.2 nM, respectively.
Taken in the same sequence, the figures for `Cc1cc(C)c(Cn2ncc3c(NC(=O)c4cc(CNC(=O)C(C)(C)C)ccc4Cl)cccc32)c(C)c1` [Example 91, 2-Chloro-5-{[(2,2-dimethylpropanoyl)amino]methyl}-N-[1-(2,4,6-trimethylbenzyl)-1H-indazol-4-yl]benzamide] were 5.1 nM and less than 1 nM.
The matching figures for `CC(C)(C)C(=O)NCc1ccc(Cl)c(C(=O)Nc2cccc3c2cnn3Cc2ccc(C(F)(F)F)cc2)c1` [Example 92]: 4.2 nM and 5.4 nM.
Regarding `CC(C)(C)C(=O)NCc1ccc(Cl)c(C(=O)Nc2cccc3c2cnn3Cc2cccc(C(F)(F)F)c2)c1` [Example 94, 2-Chloro-5-{[(2,2-dimethylpropanoyl)amino]methyl}-N-{1-[3-(trifluoromethyl)benzyl]-1H-indazol-4-yl}benzamide], the IC50 in the assay on human A549 cells is 9.2 nM; on human mPGES-1, 10 nM.
In the case of `CC(C)(C)C(=O)NCc1ccc(Cl)c(C(=O)Nc2cccc3c2cnn3CCc2ccccc2)c1` [Example 95, 2-Chloro-5-{[(2,2-dimethylpropanoyl)amino]methyl}-N-[1-(2-phenylethyl)-1H-indazol-4-yl]benzamide], the figures for the IC50 with human A549 cells and on human mPGES-1 were 2.7 nM and 1.2 nM, respectively.
The matching figures for `CC(C)(C)C(=O)NCc1ccc(Cl)c(C(=O)Nc2cccc3c2cnn3C2CCCC2)c1` [Example 97, 2-Chloro-N-(1-cyclopentyl-1H-indazol-4-yl)-5-{[(2,2-dimethylpropanoyl)amino]methyl}benzamide]: 5.3 nM and 0.7 nM.
As for `CC(C)(C)C(=O)NCc1ccc(Cl)c(C(=O)Nc2cccc3c2cnn3C2CCCCC2)c1` [Example 98, 2-Chloro-N-(1-cyclohexyl-1H-indazol-4-yl)-5-{[(2,2-dimethylpropanoyl)amino]methyl}benzamide], the IC50 with human A549 cells is 1.6 nM; on human mPGES-1, 9 nM.
Regarding `CC(C)(C)C(=O)NCc1ccc(Cl)c(C(=O)Nc2cccc3c2cnn3CC2CCC2)c1` [Example 99, 2-Chloro-N-[1-(cyclobutylmethyl)-1H-indazol-4-yl]-5-{[(2,2-dimethylpropanoyl)amino]methyl}benzamide], the IC50 with human A549 cells is 4.1 nM; at human mPGES-1 it was 1.3 nM.
Turning to `CC(C)(C)C(=O)NCc1ccc(Cl)c(C(=O)Nc2cccc3c2cnn3CC2CCCCC2)c1` [Example 100, 2-Chloro-N-[1-(cyclohexylmethyl)-1H-indazol-4-yl]-5-{[(2,2-dimethylpropanoyl)amino]methyl}benzamide], the IC50 in the assay with human A549 cells worked out at 1.9 nM; at human mPGES-1, 1 nM.
For `CC(C)(C)C(=O)NCc1ccc(Cl)c(C(=O)Nc2cccc3c2cnn3CCCc2ccccc2)c1` [Example 101, 2-Chloro-5-{[(2,2-dimethylpropanoyl)amino]methyl}-N-[1-(3-phenylpropyl)-1H-indazol-4-yl]benzamide], the IC50 in the assay with human A549 cells is 8.1 nM; at human mPGES-1 it was 4.7 nM.
For the compound `CC(C)n1ncc2c(NC(=O)c3cc(CNC(=O)C(C)(C)C)ccc3Cl)cccc21` [Example 102, 2-Chloro-5-{[(2,2-dimethylpropanoyl)amino]methyl}-N-[1-(propan-2-yl)-1H-indazol-4-yl]benzamide], the IC50 came out at 20.7 nM with human A549 cells and 3.1 nM on human mPGES-1.
`CC(C)(C)OC(=O)N1CCC(n2ncc3c(NC(=O)c4cc(CNC(=O)C(C)(C)C)ccc4Cl)cccc32)CC1` [Example 103, tert-Butyl 4-(4-{[(2-chloro-5-{[(2,2-dimethylpropanoyl)amino]methyl}phenyl)carbonyl]amino}-1H-indazol-1-yl)piperidine-1-carboxylate]: the values for the IC50 in the assay with human A549 cells and at human mPGES-1 were 4 nM and 2.7 nM, respectively.
Taken in the same sequence, the figures for `CC(C)(C)C(=O)NCc1ccc(Cl)c(C(=O)Nc2cccc3c2cnn3C2CCOCC2)c1` [Example 104, 2-Chloro-5-{[(2,2-dimethylpropanoyl)amino]methyl}-N-[1-(tetrahydro-2H-pyran-4-yl)-1H-indazol-4-yl]benzamide] were 80.6 nM and 99.9 nM.
The matching figures for `CC(C)(C)C(=O)NCc1ccc(Cl)c(C(=O)Nc2cccc3c2cnn3CC2CCCCO2)c1` (stereo not drawn) [Example 105, 2-Chloro-5-{[(2,2-dimethylpropanoyl)amino]methyl}-N-[1-(tetrahydro-2H-pyran-2-ylmethyl)-1H-indazol-4-yl]benzamide]: 11.1 nM and 1.3 nM.
In the case of `CC(=O)N1CCC(n2ncc3c(NC(=O)c4cc(CNC(=O)C(C)(C)C)ccc4Cl)cccc32)CC1` [Example 106, N-[1-(1-acetylpiperidin-4-yl)-1H-indazol-4-yl]-2-chloro-5-{[(2,2-dimethylpropanoyl)amino]methyl}benzamide], the IC50 with human A549 cells stood at 884 nM; at human mPGES-1, 175 nM.
Turning to `CC(C)(C)C(=O)NCc1ccc(Cl)c(C(=O)Nc2cccc3c2cnn3CCN2CCOCC2)c1` [Example 107, 2-Chloro-5-{[(2,2-dimethylpropanoyl)amino]methyl}-N-{1-[2-(morpholin-4-yl)ethyl]-1H-indazol-4-yl}benzamide hydrochloride], the values for the IC50 with human A549 cells and on human mPGES-1 were 399 nM and 10 nM, respectively.
Taken in the same sequence, the figures for `CC(C)(C)C(=O)NCc1ccc(Cl)c(C(=O)Nc2cccc3c2cnn3CCCCc2ccccc2)c1` [Example 108, 2-Chloro-5-{[(2,2-dimethylpropanoyl)amino]methyl}-N-[1-(4-phenylbutyl)-1H-indazol-4-yl]benzamide] were 20.6 nM and 11.1 nM.
The matching figures for `O=C(Nc1cccc2c1cnn2Cc1ccccc1)c1cc(CNC(=O)C2CC2)ccc1Cl` [Example 109, N-(1-benzyl-1H-indazol-4-yl)-2-chloro-5-{[(cyclopropylcarbonyl)amino]methyl}benzamide]: 119 nM and 2.04 nM.
